Measurements taken from patent US9108983B2, “Pyrrole compounds, a process for their preparation and pharmaceutical compositions containing them” (LES LABORATOIRES SERVIER, priority 2013, dated 2015).
Structures can show the parent of a compound that is named as a salt. Where two headings read alike, the source gives them in different places.

Experiments:
Bcl-2 protein = Bcl-2 protein (histag-Bcl-2, UniProtKB P10415) (Homo sapiens (Human), UniProt P10415); experiment: Inhibition of Bcl-2 by the fluorescence polarisation technique; format: binding; details: incubation for 2 hours, read-out: IC50 (nM) Bcl-2 FP
Chain of Bcl-2 protein (P10415 whole entry): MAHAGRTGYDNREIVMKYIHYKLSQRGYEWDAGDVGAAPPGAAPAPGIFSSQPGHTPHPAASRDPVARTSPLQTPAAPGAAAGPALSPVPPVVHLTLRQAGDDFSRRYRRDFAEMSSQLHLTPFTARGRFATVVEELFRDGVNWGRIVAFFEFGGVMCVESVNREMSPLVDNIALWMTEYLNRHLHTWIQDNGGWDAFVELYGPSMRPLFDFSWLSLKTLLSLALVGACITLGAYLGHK
Method: The fluorescence polarisation tests were carried out on microplates (384 wells). The Bcl-2 protein, labelled (histag-Bcl-2 such that Bcl-2 corresponds to the UniProtKB® primary accession number: P10415), at a final concentration of 2.50×10^−8 M, is mixed with a fluorescent peptide (Fluorescein-[…]), at a final concentration of 1.00×10^−8 M in a buffer solution (Hepes 10 mM, NaCl 150 mM, Tween20 0.05%, pH 7.4), in the presence or absence of increasing concentrations of test compounds. After incubation for 2 hours, the fluorescence polarisation is measured.

[1] = tested on: RS4;11 leukaemia tumour line; experiment: In vitro cytotoxicity (Microculture Tetrazolium Assay); format: cell-based; details: RS4;11 cells, exposed for 48 hours, cell viability, read-out: IC50 (nM) MTT RS4;11
Method: The cytotoxicity studies were carried out on the RS4;11 leukaemia tumour line.
The cells are distributed onto microplates and exposed to the test compounds for 48 hours.
The cell viability is then quantified by a colorimetric assay, the Microculture Tetrazolium Assay (Cancer Res., 1987, 47, 939-942).

| SMILES | IC50 ([1]; Homo sapiens, RS4-11, 48 h) | also measured |
| --- | --- | --- |
| Cc1c(C(=O)N(c2ccc(O)cc2)c2cnc3c(c2)CCN3C)cc(-c2cc(Cl)ccc2C(=O)N2Cc3ccccc3C[C@H]2CN2CCOCC2)n1C [Example 445, 5-(5-Chloro-2-{[(3S)-3-(morpholin-4-ylmethyl)-3,4-dihydroisoquinolin-2(1H)-yl]carbonyl}phenyl)-N-(4-hydroxyphenyl)-1,2-dimethyl-N-[1-(trideuteriomethyl)-2,3-dihydro-H-pyrrolo[2,3-b]pyridin-5-yl]-1H-pyrrole-3-carboxamide hydrochloride] | – | IC50 (Bcl-2 protein; hydrochloride): 2 nM; IC50 ([1]; hydrochloride): 19 nM |
| COc1ncc(N(C(=O)c2cc(-c3cc(F)ccc3C(=O)N3Cc4ccccc4C[C@H]3CN3CCOCC3)n(C)c2C)c2ccc(O)cc2)cn1 [Example 426, 5-(5-Fluoro-2-{[(3S)-3-(morpholin-4-ylmethyl)-3,4-dihydroisoquinolin-2(1H)-yl]carbonyl}phenyl)-N-(4-hydroxyphenyl)-N-(2-methoxypyrimidin-5-yl)-1,2-dimethyl-1H-pyrrole-3-carboxamide] | 139 nM | IC50 (Bcl-2 protein): 5.2 nM |
| Cc1c(C(=O)N(C)c2ccc(O)cc2)cc(-c2ccc(CNC(=O)NCc3ccccc3)cc2C(=O)N2Cc3ccccc3C[C@H]2C)n1C [Example 37, 5-(4-{[(Benzylcarbamoyl)amino]methyl}-2-{[(3R)-3-methyl-3,4-dihydroisoquinolin-2(1H)-yl]carbonyl}phenyl)-N-(4-hydroxyphenyl)-N,1,2-trimethyl-1H-pyrrole-3-carboxamide] | > 600 nM | IC50 (Bcl-2 protein): 60.4 nM |
| Cc1c(C(=O)N(c2ccc(O)cc2)c2cnn(C)c2)cc(-c2cc3c(cc2C(=O)N2Cc4ccccc4C[C@H]2CN2CCOCC2)OCO3)n1CC(F)F [Example 95, 1-(2,2-Difluoroethyl)-N-(4-hydroxyphenyl)-2-methyl-N-(1-methyl-1H-pyrazol-4-yl)-5-(6-{[(3S)-3-(morpholin-4-ylmethyl)-3,4-dihydroisoquinolin-2(1H)-yl]carbonyl}-1,3-benzodioxol-5-yl)-1H-pyrrole-3-carboxamide hydrochloride] | 174 nM | IC50 (Bcl-2 protein): 7 nM |
| COc1ccc(C(=O)N2Cc3ccccc3C[C@H]2CN2CCOCC2)c(-c2cc(C(=O)N(c3ccccc3)c3ccc(O)cc3)c(C)n2C)c1 [Example 19, N-(4-Hydroxyphenyl)-5-(5-methoxy-2-{[(3S)-3-(morpholin-4-ylmethyl)-3,4-dihydroisoquinolin-2(1H)-yl]carbonyl}phenyl)-1,2-dimethyl-N-phenyl-. H-pyrrole-3-carboxamide hydrochloride] | – | IC50 (Bcl-2 protein): 6 nM; IC50 [1]: 65.5 nM |
| Cc1c(C(=O)N(c2ccccc2)c2cnc3c(ccn3C)c2)cc(-c2cc(F)c(O)cc2C(=O)N2Cc3ccccc3C[C@H]2CN2CCOCC2)n1C [Example 443, 5-(5-Fluoro-4-hydroxy-2-{[(3S)-3-(morpholin-4-ylmethyl)-3,4-dihydroisoquinolin-2(1H)-yl]carbonyl}phenyl)-1,2-dimethyl-N-(1-methyl-1H-pyrrolo[2,3-b]pyridin-5-yl)-N-phenyl-1H-pyrrole-3-carboxamide] | 57.9 nM | – |
| Cc1c(C(=O)N(c2ccc(O)cc2)c2cnn(C)c2)cc(-c2ccc(Cl)cc2C(=O)N2Cc3ccccc3C[C@H]2CN2CCOCC2)n1C [Example 466, 5-(4-Chloro-2-{[(3S)-3-(morpholin-4-ylmethyl)-3,4-dihydroisoquinolin-2(1H)-yl]carbonyl}phenyl)-N-(4-hydroxyphenyl)-1,2-dimethyl-N-(1-methyl-1H-pyrazol-4-yl)-1H-pyrrole-3-carboxamide hydrochloride] | 493 nM | – |
| CC(C)n1cc(C(=O)N(c2ccc(O)cc2)c2ccc3c(ccn3C)c2)cc1-c1cc(Cl)ccc1C(=O)N1Cc2ccccc2C[C@H]1CN1CCN(C)CC1 [Example 8] | – | IC50 [1]: 255 nM |
| Cc1c(N(C(=O)c2cc(-c3cc(Cl)ccc3C(=O)N3Cc4ccccc4C[C@H]3CN3CCOCC3)n(C)c2C)c2ccc(O)cc2)cc(C#N)n1C [Example 386, 5-(5-Chloro-2-{[(3S)-3-(morpholin-4-ylmethyl)-3,4-dihydroisoquinolin-2(1H)-yl]carbonyl}phenyl)-N-(5-cyano-1,2-dimethyl-1H-pyrrol-3-yl)-N-(4-hydroxyphenyl)-1,2-dimethyl-1H-pyrrole-3-carboxamide hydrochloride] | – | IC50 ([1]; Homo sapiens): 9.23 nM |
| CN1CCN(C[C@@H]2Cc3ccccc3CN2C(=O)c2cc3c(cc2-c2cc(C(=O)N(c4ccc(O)cc4)c4ccc5[nH]ccc5c4)cn2C)OCO3)CC1 [Example 4, N-(4-Hydroxyphenyl)-N-(1H-indol-5-yl)-1-methyl-5-(6-{[(3S)-3-[(4-methylpiperazin-1-yl)methyl]-3,4-dihydroisoquinolin-2(1H)-yl]carbonyl}-1,3-benzodioxol-5-yl)-1H-pyrrole-3-carboxamide] | 231 nM | – |
| COc1ccc(N(C(=O)c2cc(-c3cc(Cl)ccc3C(=O)N3Cc4ccccc4C[C@H]3CN3CCOCC3)n(C)c2C)c2ccc(O)cc2)nc1C#N [Example 457, 5-(5-Chloro-2-{[(3S)-3-(morpholin-4-ylmethyl)-3,4-dihydroisoquinolin-2(1H)-yl]carbonyl}phenyl)-N-(6-cyano-5-methoxypyridin-2-yl)-N-(4-hydroxyphenyl)-1,2-dimethyl-1H-pyrrole-3-carboxamide hydrochloride] | 80.4 nM | – |
| C[C@@H]1Cc2ccccc2CN1C(=O)c1cc2c(cc1-c1cc(C(=O)N(c3ccc(O)cc3)c3cnn(C)c3)c(CCN3CCOCC3)n1C)OCO2 [Example 81, N-(4-Hydroxyphenyl)-1-methyl-5-(6-{[(3R)-3-methyl-3,4-dihydroisoquinolin-2(1H)-yl]carbonyl}-1,3-benzodioxol-5-yl)-N-(1-methyl-1H-pyrazol-4-yl)-2-[2-(morpholin-4-yl)ethyl]-1H-pyrrole-3-carboxamide hydrochloride] | 249 nM | – |
| Cl.[2H]C([2H])([2H])n1c(C#N)cc(N(C(=O)c2cc(-c3cc(Cl)ccc3C(=O)N3Cc4ccccc4C[C@H]3CN3CCOCC3)n(C)c2C)c2ccc(O)cc2)c1C [Example 449, 5-(5-Chloro-2-{[(3S)-3-(morpholin-4-ylmethyl)-3,4-dihydroisoquinolin-2(1H)-yl]carbonyl}phenyl)-N-[5-cyano-2-methyl-1-(trideuteriomethyl)-1H-pyrrol-3-yl]-N-(4-hydroxyphenyl)-1,2-dimethyl-1H-pyrrole-3-carboxamide hydrochloride] | – | IC50 ([1]; Homo sapiens): 11.9 nM |
| Cl.[2H]C([2H])([2H])n1cc(N(C(=O)c2cc(-c3cc(F)ccc3C(=O)N3Cc4ccccc4C[C@H]3CN3CCOCC3)n(C)c2C)c2ccc(O)cc2)cn1 [Example 420, 5-(5-Fluoro-2-{[(3S)-3-(morpholin-4-ylmethyl)-3,4-dihydroisoquinolin-2(1H)-yl]carbonyl}phenyl)-N-(4-hydroxyphenyl)-1,2-dimethyl-N-[1-(trideuteriomethyl)-1H-pyrazol-4-yl]-1H-pyrrole-3-carboxamide hydrochloride] | 51.8 nM | – |
| Cc1c(N(C(=O)c2cc(-c3ccc(Cl)cc3C(=O)N3Cc4ccccc4C[C@H]3CN3CCOCC3)n(C)c2C)c2ccc(O)cc2)cc(C#N)n1C [Example 465, 5-(4-Chloro-2-{[(3S)-3-(morpholin-4-ylmethyl)-3,4-dihydroisoquinolin-2(1H)-yl]carbonyl}phenyl)-N-(5-cyano-1,2-dimethyl-1H-pyrrol-3-yl)-N-(4-hydroxyphenyl)-1,2-dimethyl-1H-pyrrole-3-carboxamide hydrochloride] | 50.6 nM | – |
| Cc1c(C(=O)N(c2ccccc2)c2ccc(O)cc2)cc(-c2cc(Cl)ccc2C(=O)N2Cc3ccccc3C[C@H]2COCCN(C)C)n1C [Example 60, 5-(5-Chloro-2-{[(3S)-3-{[2-(dimethylamino)ethoxy]methyl}-3,4-dihydroisoquinolin-2(1H)-yl]carbonyl}phenyl)-N-(4-hydroxyphenyl)-1,2-dimethyl-N-phenyl-1H-pyrrole-3-carboxamide hydrochloride] | 18.3 nM | – |
| Cc1c(C(=O)N(c2ccc(O)cc2)c2cnn(C)c2)cc(-c2cc(F)ccc2C(=O)N2Cc3ccccc3C[C@H]2CN2CCOCC2)n1C [Example 67, 5-(5-Fluoro-2-{[(3S)-3-(morpholin-4-ylmethyl)-3,4-dihydroisoquinolin-2(1H)-yl]carbonyl}phenyl)-N-(4-hydroxyphenyl)-1,2-dimethyl-N-(1-methyl-1H-pyrazol-4-yl)-1H-pyrrole-3-carboxamide hydrochloride] | 98.6 nM | – |
| CCOc1ncc(N(C(=O)c2cc(-c3cc(F)ccc3C(=O)N3Cc4ccccc4C[C@H]3CN3CCOCC3)n(C)c2C)c2ccc(O)cc2)cn1 [Example 463, N-(2-Ethoxypyrimidin-5-yl)-5-(5-fluoro-2-{[(3S)-3-(morpholin-4-ylmethyl)-3,4-dihydroisoquinolin-2(1H)-yl]carbonyl}phenyl)-N-(4-hydroxyphenyl)-1,2-dimethyl-1H-pyrrole-3-carboxamide] | 40.8 nM | – |
| Cn1cc(C(=O)N(c2ccccc2)c2ccccc2)cc1-c1ccccc1C(=O)N1Cc2ccccc2C[C@H]1CN [Example 2, 5-(2-{[(3S)-3-(Aminomethyl)-3,4-dihydroisoquinolin-2(1H)-yl]carbonyl}phenyl)-1-methyl-N,N-diphenyl-1H-pyrrole-3-carboxamide] | 1660 nM | – |
